Earlier results on four compounds are cited in patent US20150164065A1, “ORGAN ARREST, PROTECTION, PRESERVATION AND RECOVERY” (priority 2002, published 2015).

The target of data set [1] is human NK(1) receptor (Homo sapiens, UniProt P25103).
Data set [2] addresses T1, NK(2) receptor (Homo sapiens, UniProt P21452).
T1 sequence (P21452 1-398): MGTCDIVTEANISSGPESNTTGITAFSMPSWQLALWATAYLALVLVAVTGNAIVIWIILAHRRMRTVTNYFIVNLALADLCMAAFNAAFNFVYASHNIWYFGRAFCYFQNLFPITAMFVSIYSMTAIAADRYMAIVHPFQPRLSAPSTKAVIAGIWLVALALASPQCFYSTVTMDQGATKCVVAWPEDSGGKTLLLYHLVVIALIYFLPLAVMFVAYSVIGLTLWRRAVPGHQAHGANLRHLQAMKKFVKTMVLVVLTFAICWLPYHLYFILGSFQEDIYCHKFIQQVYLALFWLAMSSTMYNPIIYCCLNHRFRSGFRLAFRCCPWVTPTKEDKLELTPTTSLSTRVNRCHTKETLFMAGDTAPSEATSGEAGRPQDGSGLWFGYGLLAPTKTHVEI
The note with it: relative to NK(1) receptor.

Data set [3] has as its target T2, NK(3) receptor (Homo sapiens, UniProt P29371).
T2 sequence (P29371 1-465): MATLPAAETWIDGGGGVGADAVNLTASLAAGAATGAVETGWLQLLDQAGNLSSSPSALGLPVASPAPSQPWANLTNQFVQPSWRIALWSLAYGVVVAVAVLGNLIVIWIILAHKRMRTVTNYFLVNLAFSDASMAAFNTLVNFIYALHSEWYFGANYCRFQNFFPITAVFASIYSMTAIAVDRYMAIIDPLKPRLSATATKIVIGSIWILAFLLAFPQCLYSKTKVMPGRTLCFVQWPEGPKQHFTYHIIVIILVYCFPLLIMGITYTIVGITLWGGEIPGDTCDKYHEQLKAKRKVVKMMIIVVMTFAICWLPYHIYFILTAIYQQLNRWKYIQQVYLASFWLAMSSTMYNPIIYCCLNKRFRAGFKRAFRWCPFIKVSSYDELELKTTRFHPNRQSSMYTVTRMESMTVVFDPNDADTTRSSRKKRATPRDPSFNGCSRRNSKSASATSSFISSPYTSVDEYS
The note with it: relative to NK(1) receptor.

The subject of data set [4] is isolated brain slices.

Sequence of human NK(1) receptor (P25103 whole entry): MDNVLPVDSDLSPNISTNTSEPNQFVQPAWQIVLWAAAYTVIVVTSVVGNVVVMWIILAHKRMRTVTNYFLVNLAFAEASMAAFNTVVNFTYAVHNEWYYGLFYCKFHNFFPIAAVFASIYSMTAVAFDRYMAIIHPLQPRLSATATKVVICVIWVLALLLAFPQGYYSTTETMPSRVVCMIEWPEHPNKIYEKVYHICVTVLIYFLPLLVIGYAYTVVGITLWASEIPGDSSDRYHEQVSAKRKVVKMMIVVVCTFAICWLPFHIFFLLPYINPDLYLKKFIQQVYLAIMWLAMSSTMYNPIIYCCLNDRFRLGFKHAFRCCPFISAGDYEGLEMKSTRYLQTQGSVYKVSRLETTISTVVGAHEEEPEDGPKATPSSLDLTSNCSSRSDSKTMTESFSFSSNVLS

As usually defined, the Ki is the equilibrium dissociation constant of an inhibitor or competing ligand from its target. Turning to `Cc1cccc(C)c1NC(=O)C[C@H]1CCN(C(=O)c2cc(C(F)(F)F)cc(C(F)(F)F)c2)[C@@H](Cc2ccccc2)C1.O=C(O)C[C@H](O)C(=O)O` (relative stereo) [Example R116301, (2R-trans)-4-[1-[3,5-bis(trifluoromethyl)benzoyl]-2-(phenylmethyl)-4-piperidinyl]-N-(2,6-dimethylphenyl)-1-acetamide (S)-Hydroxybutanedioate], in data set [1], the Ki is 0.45 nM. Also, the “selectivity toward NK(2) receptor” value in data set [2] is reported as “over 200 fold”. In data set [3], the “selectivity toward NK(3) receptor” value was “over 200 fold”.
As for `Cc1c(C)c2c(c(C)c1O)CC[C@](C)(C(=O)O)O2` [Trolox(R)], the ischemia-induced cell swelling result in data set [4] is reported as “reduction of cell swelling”.
Take `CNC(=S)NC` [dimethylthiourea]: the ischemia-induced cell swelling entry in data set [4] was “reduction of cell swelling”.
For `CC1(C)CC(O)CC(C)(C)N1[O]` [tempol(R)], the ischemia-induced cell swelling entry in data set [4] was “reduction of cell swelling”.
